The source of these data is patent publication US20170114021A1, “HALOGEN-SUBSTITUTED COMPOUNDS” (priority 2014, published 2017).

A short description of data set [1]: log P by HPLC on reversed-phase column (C18), EEC Directive 79/831 Annex V.A8. In kind it is physicochemical. The protocol:
^a) Unless indicated otherwise, the following method was used to determine the log P values and masses: The determination of the given log P values was carried out in accordance with EEC Directive 79/831 Annex V.A8 by HPLC (High Performance Liquid Chromatography) on a reversed-phase column (C18). Agilent 1100 LC system; 50*4.6 Zorbax Eclipse Plus C18 1.8 micron; mobile phase A: acetonitrile (0.1% formic acid); mobile phase B: water (0.09% formic acid); linear gradient from 10% acetonitrile to 95% acetonitrile in 4.25 min, then 95% acetonitrile for a further 1.25 min; oven temperature 55° C.; flow rate: 2.0 ml/min. Mass detection is effected by means of an Agilend MSD system.

The test system of another data set is Myzus persicae. Description: Myzus persicae spray test (MYZUPE). In kind it is in vivo. The note with it: application rate 100 g/ha; Chinese cabbage leaf discs; after 6 days. The protocol:
Myzus persicae—Spray Test (MYZUPE) Solvent: 78 parts by weight of acetone • • 1.5 parts by weight of dimethylformamide Emulsifier: alkylaryl polyglycol ether
(§1) To produce a suitable preparation of active compound, 1 part by weight of active compound is dissolved using the specified parts by weight of solvent and made up with water containing an emulsifier concentration of 1000 ppm until the desired concentration is attained. To produce further test concentrations, the preparation is diluted with emulsifier-containing water.
Discs of Chinese cabbage leaves (Brassica pekinensis) infested by all stages of the green peach aphid (Myzus persicae) are sprayed with an active compound preparation of the desired concentration.
After 6 days, efficacy in % is determined. 100% means that all the aphids have been killed; 0% means that no aphids have been killed.

A further data set concerns Phaedon cochleariae. Description: Phaedon cochleariae spray test (PHAECO). Particulars: application rate 100 g/ha; Chinese cabbage leaf discs; after 7 days. In kind it is in vivo. Here is the method:
Phaedon cochleariae—Spray Test (PHAECO) Solvent: 78.0 parts by weight of acetone • • 1.5 parts by weight of dimethylformamide Emulsifier: alkylaryl polyglycol ether
as §1
After 7 days, efficacy in % is determined. 100% means that all the beetle larvae have been killed; 0% means that no beetle larvae have been killed.

In a further data set the test system is Spodoptera frugiperda. Description: Spodoptera frugiperda spray test (SPODFR). The note with it: application rate 100 g/ha; maize leaf discs; after 7 days. In kind it is in vivo. Here is the method:
Spodoptera frugiperda—Spray Test (SPODFR)
Solvent: 78.0 parts by weight of acetone • • 1.5 parts by weight of dimethylformamide Emulsifier: alkylaryl polyglycol ether
as §1
Leaf discs of maize (Zea mays) are sprayed with an active compound preparation of the desired concentration and, after drying, populated with caterpillars of the armyworm (Spodoptera frugiperda).
After 7 days, efficacy in % is determined. 100% means that all the caterpillars have been killed; 0% means that no caterpillars have been killed.

Regarding “N-{2-fluoro-5-[2′-methyl-5′-(pentafluoroethyl)-4′-(trifluoromethyl)-2′H-1,3′-bipyrazol-4-yl]benzyl}propanamide [Ic-1]”, the log partition coefficient (log P) (in general, the decadic logarithm of the partition coefficient of the neutral form, usually between octanol and water) in data set [1] turned out to be 3.83. Moreover, the efficacy with Myzus persicae was found to be 90%; with Phaedon cochleariae, 100%; with Spodoptera frugiperda, 100%.
